Data taken from PubChem BioAssay (NCI).
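Each compound was tested at five concentrations against cells in 96-well plates for 48 hours. GI50 marks 50% less growth. TGI: total growth inhibition.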

How the values were obtained:
Assay in all cases: NCI tumour cell line growth inhibition, 48 h
[1] = system: SNB-75 CNS
[2] = system: HOP-62 NSCLC
[3] = system: MDA-MB-231 breast
[4] = system: HCC-2998 colon
[5] = system: OVCAR-8 ovarian
[6] = system: SF-295 CNS
[7] = system: SNB-19 CNS
[8] = system: SW-620 colon
[9] = system: SK-MEL-5 melanoma
[10] = system: RXF 393 renal
[11] = system: HL-60(TB) leukemia
[12] = system: ACHN renal
[13] = system: HCT-15 colon
[14] = system: HS 578T breast
[15] = system: BT-549 breast
[16] = system: CAKI-1 renal
[17] = system: DU-145 prostate
[18] = system: NCI/ADR-RES ovarian
[19] = system: SK-MEL-2 melanoma
[20] = system: NCI-H23 lung
[21] = system: KM12 colon
[22] = system: SK-OV-3 ovarian
[23] = system: HT29 colon
[24] = system: 786-0 renal
[25] = system: EKVX NSCLC
[26] = system: LOX IMVI melanoma
[27] = system: OVCAR-5 ovarian
[28] = system: NCI-H460 lung
[29] = system: M14 melanoma
[30] = system: OVCAR-4 ovarian
[31] = system: MCF7 breast
[32] = system: TK-10 renal
[33] = system: SN12C renal
[34] = system: U251 CNS
[35] = system: COLO 205 colon
[36] = system: OVCAR-3 ovarian
[37] = system: MOLT-4 leukemia
[38] = system: SF-268 CNS
[39] = system: SF-539 CNS
[40] = system: NCI-H226 lung
[41] = system: SR leukemia
[42] = system: K-562 leukemia
[43] = system: HCT-116 colon
[44] = system: HOP-92 NSCLC
[45] = system: MALME-3M melanoma
[46] = system: A549 NSCLC
[47] = system: NCI-H522 lung
[48] = system: UACC-62 melanoma
[49] = system: PC-3 prostate
[50] = system: RPMI-8226 leukemia
[51] = system: UO-31 renal
[52] = system: A498 renal
[53] = system: T-47D breast
[54] = system: CCRF-CEM leukemia
[55] = system: UACC-257 melanoma
[56] = system: IGROV1 ovarian

**Q.** For `CCO/C=N/C1=C(C#N)C(c2ccc(OC)cc2)c2sc3c(F)cccc3c2O1` (configuration not stated), which GI50 [1] is on record?
**A.** The GI50 was 1.66 µM.

**Q.** What about the TGI [1] of the same compound?
**A.** The TGI was 5.67 µM.

**Q.** And the GI50 [2]?
**A.** Its GI50 is 2.9 µM.

**Q.** What about the TGI [2] of the same compound?
**A.** Its TGI is 47.5 µM.

**Q.** And the GI50 [3]?
**A.** Its GI50 is 3.87 µM.

**Q.** What about the TGI [3] of the same compound?
**A.** Its TGI is 30.7 µM.

**Q.** What about the GI50 [4] of the same compound?
**A.** The GI50 was 5.12 µM.

**Q.** What about the TGI [4] of the same compound?
**A.** Its TGI is 32.6 µM.

**Q.** And the GI50 [5]?
**A.** The GI50 was 4.06 µM.

**Q.** And the TGI [5]?
**A.** The TGI was greater than 100 µM.

**Q.** What about the GI50 [6] of the same compound?
**A.** Its GI50 is 4.44 µM.

**Q.** And the TGI [6]?
**A.** Its TGI is 62.3 µM.

**Q.** And the GI50 [7]?
**A.** The GI50 was 4.02 µM.

**Q.** What about the TGI [7] of the same compound?
**A.** Its TGI is greater than 100 µM.

**Q.** And the GI50 [8]?
**A.** Its GI50 is 2.2 µM.

**Q.** And the TGI [8]?
**A.** Its TGI is greater than 100 µM.

**Q.** What about the GI50 [9] of the same compound?
**A.** The GI50 was 3.24 µM.

**Q.** And the TGI [9]?
**A.** Its TGI is 15.7 µM.

**Q.** What about the GI50 [10] of the same compound?
**A.** The GI50 was 2 µM.

**Q.** And the TGI [10]?
**A.** Its TGI is 16.5 µM.

**Q.** And the GI50 [11]?
**A.** Its GI50 is 2 µM.

**Q.** And the TGI [11]?
**A.** Its TGI is 5.5 µM.

**Q.** And the GI50 [12]?
**A.** Its GI50 is 5.57 µM.

**Q.** What about the TGI [12] of the same compound?
**A.** Its TGI is greater than 100 µM.

**Q.** What about the GI50 [13] of the same compound?
**A.** The GI50 was 1.67 µM.

**Q.** What about the TGI [13] of the same compound?
**A.** The TGI was 26.7 µM.

**Q.** And the GI50 [14]?
**A.** Its GI50 is 2.11 µM.

**Q.** What about the TGI [14] of the same compound?
**A.** The TGI was 7.93 µM.

**Q.** What about the GI50 [15] of the same compound?
**A.** Its GI50 is 7.17 µM.

**Q.** What about the TGI [15] of the same compound?
**A.** The TGI was greater than 100 µM.

**Q.** And the GI50 [16]?
**A.** Its GI50 is 3.3 µM.

**Q.** What about the TGI [16] of the same compound?
**A.** The TGI was greater than 100 µM.

**Q.** And the GI50 [17]?
**A.** Its GI50 is 3.57 µM.

**Q.** What about the TGI [17] of the same compound?
**A.** The TGI was 57.2 µM.

**Q.** And the GI50 [18]?
**A.** The GI50 was 1.25 µM.

**Q.** What about the TGI [18] of the same compound?
**A.** Its TGI is 5.03 µM.

**Q.** What about the GI50 [19] of the same compound?
**A.** The GI50 was 3.8 µM.

**Q.** What about the TGI [19] of the same compound?
**A.** Its TGI is 78.3 µM.

**Q.** And the GI50 [20]?
**A.** The GI50 was 3.29 µM.

**Q.** And the TGI [20]?
**A.** Its TGI is greater than 100 µM.

**Q.** And the GI50 [21]?
**A.** The GI50 was 2.52 µM.

**Q.** And the TGI [21]?
**A.** Its TGI is 72 µM.

**Q.** And the GI50 [22]?
**A.** The GI50 was 4.67 µM.

**Q.** What about the TGI [22] of the same compound?
**A.** Its TGI is greater than 100 µM.

**Q.** And the GI50 [23]?
**A.** The GI50 was 3.23 µM.

**Q.** What about the TGI [23] of the same compound?
**A.** The TGI was 16.6 µM.

**Q.** And the GI50 [24]?
**A.** Its GI50 is 4.85 µM.

**Q.** What about the TGI [24] of the same compound?
**A.** The TGI was 68.9 µM.

**Q.** What about the GI50 [25] of the same compound?
**A.** The GI50 was 7.12 µM.

**Q.** And the TGI [25]?
**A.** Its TGI is greater than 100 µM.

**Q.** And the GI50 [26]?
**A.** The GI50 was 3.08 µM.

**Q.** What about the TGI [26] of the same compound?
**A.** Its TGI is 12.4 µM.

**Q.** What about the GI50 [27] of the same compound?
**A.** Its GI50 is 6.8 µM.

**Q.** And the TGI [27]?
**A.** The TGI was 76.3 µM.

**Q.** What about the GI50 [28] of the same compound?
**A.** The GI50 was 2.82 µM.

**Q.** And the TGI [28]?
**A.** The TGI was 13.5 µM.

**Q.** What about the GI50 [29] of the same compound?
**A.** The GI50 was 1.7 µM.

**Q.** What about the TGI [29] of the same compound?
**A.** The TGI was greater than 100 µM.

**Q.** What about the GI50 [30] of the same compound?
**A.** The GI50 was 5.59 µM.

**Q.** What about the TGI [30] of the same compound?
**A.** Its TGI is greater than 100 µM.

**Q.** And the GI50 [31]?
**A.** Its GI50 is 1.44 µM.

**Q.** What about the TGI [31] of the same compound?
**A.** The TGI was 50.9 µM.

**Q.** And the GI50 [32]?
**A.** Its GI50 is 6.74 µM.

**Q.** And the TGI [32]?
**A.** Its TGI is greater than 100 µM.

**Q.** What about the GI50 [33] of the same compound?
**A.** Its GI50 is 3.75 µM.

**Q.** What about the TGI [33] of the same compound?
**A.** The TGI was 55 µM.

**Q.** What about the GI50 [34] of the same compound?
**A.** Its GI50 is 3.48 µM.

**Q.** And the TGI [34]?
**A.** Its TGI is 19.7 µM.

**Q.** What about the GI50 [35] of the same compound?
**A.** The GI50 was 3.33 µM.

**Q.** What about the TGI [35] of the same compound?
**A.** The TGI was 15 µM.

**Q.** What about the GI50 [36] of the same compound?
**A.** The GI50 was 2.2 µM.

**Q.** What about the TGI [36] of the same compound?
**A.** Its TGI is 9.7 µM.

**Q.** And the GI50 [37]?
**A.** The GI50 was 2.8 µM.

**Q.** And the TGI [37]?
**A.** The TGI was 13.5 µM.

**Q.** What about the GI50 [38] of the same compound?
**A.** Its GI50 is 4.31 µM.

**Q.** And the TGI [38]?
**A.** The TGI was greater than 100 µM.

**Q.** And the GI50 [39]?
**A.** The GI50 was 2.18 µM.

**Q.** What about the TGI [39] of the same compound?
**A.** The TGI was 6.28 µM.

**Q.** And the GI50 [40]?
**A.** The GI50 was 2.89 µM.

**Q.** What about the TGI [40] of the same compound?
**A.** Its TGI is 42.1 µM.

**Q.** What about the GI50 [41] of the same compound?
**A.** Its GI50 is 1.04 µM.

**Q.** And the TGI [41]?
**A.** The TGI was 17.5 µM.

**Q.** What about the GI50 [42] of the same compound?
**A.** Its GI50 is 0.537 µM.

**Q.** And the TGI [42]?
**A.** The TGI was greater than 100 µM.

**Q.** What about the GI50 [43] of the same compound?
**A.** The GI50 was 2.02 µM.

**Q.** What about the TGI [43] of the same compound?
**A.** The TGI was greater than 100 µM.

**Q.** What about the GI50 [44] of the same compound?
**A.** The GI50 was 3.21 µM.

**Q.** And the TGI [44]?
**A.** Its TGI is 43.6 µM.

**Q.** And the GI50 [45]?
**A.** The GI50 was 11.3 µM.

**Q.** What about the TGI [45] of the same compound?
**A.** Its TGI is greater than 100 µM.

**Q.** And the GI50 [46]?
**A.** The GI50 was 2.22 µM.

**Q.** What about the TGI [46] of the same compound?
**A.** Its TGI is greater than 100 µM.

**Q.** And the GI50 [47]?
**A.** Its GI50 is 0.569 µM.

**Q.** What about the TGI [47] of the same compound?
**A.** The TGI was 3.84 µM.

**Q.** What about the GI50 [48] of the same compound?
**A.** The GI50 was 1.84 µM.

**Q.** What about the TGI [48] of the same compound?
**A.** Its TGI is greater than 100 µM.

**Q.** And the GI50 [49]?
**A.** The GI50 was 2.86 µM.

**Q.** What about the TGI [49] of the same compound?
**A.** Its TGI is greater than 100 µM.

**Q.** And the GI50 [50]?
**A.** Its GI50 is 3.26 µM.

**Q.** And the TGI [50]?
**A.** The TGI was 16.3 µM.

**Q.** And the GI50 [51]?
**A.** The GI50 was 4.03 µM.

**Q.** And the TGI [51]?
**A.** The TGI was greater than 100 µM.

**Q.** What about the GI50 [52] of the same compound?
**A.** Its GI50 is 2.18 µM.

**Q.** What about the TGI [52] of the same compound?
**A.** The TGI was 7.8 µM.

**Q.** What about the GI50 [53] of the same compound?
**A.** Its GI50 is 3.51 µM.

**Q.** And the TGI [53]?
**A.** Its TGI is greater than 100 µM.

**Q.** What about the GI50 [54] of the same compound?
**A.** Its GI50 is 2.69 µM.

**Q.** And the TGI [54]?
**A.** Its TGI is 28.7 µM.

**Q.** What about the GI50 [55] of the same compound?
**A.** The GI50 was 14.8 µM.

**Q.** And the TGI [55]?
**A.** The TGI was greater than 100 µM.

**Q.** What about the GI50 [56] of the same compound?
**A.** The GI50 was 2.73 µM.

**Q.** And the TGI [56]?
**A.** The TGI was greater than 100 µM.
